Measurements published in the supplement of paper PMC4862054.
Values joined by “and” are separate entries in the source; they are usually repeats but may differ in a detail not shown here. Identical values can stand only once.

Test system: MFM-223
Experiment: normalised viability (% of control), CellTiter-Blue; higher = more viable cells (about 100 = DMSO control)
Conditions: 1000 nM; incubation time: 72 h
Procedure, shortened: (§1)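 Breast cancer cell lines in 20 µl suspension were seeded onto 384-well plates pre-loaded with compound dissolved in 5 µl medium, then incubated 72 h. CellTiter-Blue reagent (2.5 µl) was added for 2 h at 37 °C and fluorescence read at 560/590 nm. Each plate was normalised to vehicle (100) and a positive kill control (0), with Z'-factor quality control. The value is normalised viability at one listed concentration of the series.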

In order of falling normalised viability:
1. CC[C@H](Nc1ncnc2[nH]cnc12)c1nc2cccc(F)c2c(=O)n1-c1ccccc1 [CAL-101]  89.9%
2. C=CC(=O)Nc1cc2c(Nc3ccc(F)c(Cl)c3)ncnc2cc1OCCCN1CCOCC1 [Canertinib]  78.6%

Same assay, conditions: 10000 nM; incubation time: 72 h

With Nc1ncn([C@H]2C[C@H](O)[C@@H](CO)O2)c(=O)n1 [Decitabine] the normalised viability was 90.1% and 98.6%.

In order of falling normalised viability:
1. Nc1nc2[nH]cc(CCc3ccc(C(=O)N[C@@H](CCC(=O)O)C(=O)O)cc3)c2c(=O)[nH]1 [Pemetrexed]  98.2%
2. CC[C@H](Nc1ncnc2[nH]cnc12)c1nc2cccc(F)c2c(=O)n1-c1ccccc1 [CAL-101]  79.9%
3. COc1cc2nccc(Oc3ccc(NC(=O)Nc4cc(C)on4)c(Cl)c3)c2cc1OC [Tivozanib]  40.2%
4. O=C(Cc1ccc(-c2ccc(OCCN3CCOCC3)cc2)cn1)NCc1ccccc1 [KX2-391]  26.9%
5. CCN(CC)CCCC(C)Nc1c2ccc(Cl)cc2nc2ccc(OC)cc12 (stereo unspecified) [Mepacrine]  20.9%
6. Nc1ccccc1NC(=O)c1ccc(CNC(=O)OCc2cccnc2)cc1 [Entinostat]  19.9%
7. C=CC(=O)Nc1cc2c(Nc3ccc(F)c(Cl)c3)ncnc2cc1OCCCN1CCOCC1 [Canertinib]  19.7%
8. COc1cc([C@@H]2c3cc4c(cc3[C@@H](O[C@@H]3O[C@@H]5CO[C@@H](c6cccs6)O[C@H]5[C@H](O)[C@H]3O)[C@H]3COC(=O)[C@H]23)OCO4)cc(OC)c1O [Teniposide]  13.1%

Test system: SK-BR-3
Experiment: as above
Conditions: 0.25 nM; incubation time: 72 h
Procedure, shortened: as §1

In the case of CC(=O)Nc1cccc(-n2c(=O)n(C3CC3)c(=O)c3c(Nc4ccc(I)cc4F)n(C)c(=O)c(C)c32)c1, the normalised viability is reported as 111%.

Same assay, conditions: 0.99 nM; incubation time: 72 h

CCN(CC)CCCC(C)Nc1c2ccc(Cl)cc2nc2ccc(OC)cc12 (stereo unspecified) [Mepacrine] was tested, and the normalised viability was 100%.

Same assay, conditions: 1 nM; incubation time: 72 h

In order of falling normalised viability:
1. O=C(/C=C/c1cccnc1)NCCCCC1CCN(C(=O)c2ccccc2)CC1 [FK-866]  101%
2. CC[C@@H]1C(=O)N(C)c2cnc(Nc3ccc(C(=O)NC4CCN(C)CC4)cc3OC)nc2N1C1CCCC1 [BI 2536]  99.7%

Same assay, conditions: 10 nM; incubation time: 72 h

For Nc1ncn([C@H]2C[C@H](O)[C@@H](CO)O2)c(=O)n1 [Decitabine], the normalised viability was 84.5% and 98.1%.

In order of falling normalised viability:
1. CCN(CC)CCCC(C)Nc1c2ccc(Cl)cc2nc2ccc(OC)cc12 (stereo unspecified) [Mepacrine]  110%
2. Nc1ccccc1NC(=O)c1ccc(CNC(=O)OCc2cccnc2)cc1 [Entinostat]  108%
3. COc1cc([C@@H]2c3cc4c(cc3[C@@H](O[C@@H]3O[C@@H]5CO[C@@H](c6cccs6)O[C@H]5[C@H](O)[C@H]3O)[C@H]3COC(=O)[C@H]23)OCO4)cc(OC)c1O [Teniposide]  105%
4. O=C(Cc1ccc(-c2ccc(OCCN3CCOCC3)cc2)cn1)NCc1ccccc1 [KX2-391]  102%
5. CC[C@H](Nc1ncnc2[nH]cnc12)c1nc2cccc(F)c2c(=O)n1-c1ccccc1 [CAL-101]  101%
6. COc1cc2nccc(Oc3ccc(NC(=O)Nc4cc(C)on4)c(Cl)c3)c2cc1OC [Tivozanib]  99.7%
7. Nc1nc2[nH]cc(CCc3ccc(C(=O)N[C@@H](CCC(=O)O)C(=O)O)cc3)c2c(=O)[nH]1 [Pemetrexed]  97.5%
8. C=CC(=O)Nc1cc2c(Nc3ccc(F)c(Cl)c3)ncnc2cc1OCCCN1CCOCC1 [Canertinib]  71.9%

Same assay, conditions: 25 nM; incubation time: 72 h

Molecule CC(=O)Nc1cccc(-n2c(=O)n(C3CC3)c(=O)c3c(Nc4ccc(I)cc4F)n(C)c(=O)c(C)c32)c1 has a normalised viability of 111%.

Same assay, conditions: 99 nM; incubation time: 72 h

For CCN(CC)CCCC(C)Nc1c2ccc(Cl)cc2nc2ccc(OC)cc12 (stereo unspecified) [Mepacrine], the normalised viability was 104%.

Same assay, conditions: 100 nM; incubation time: 72 h

In order of rising normalised viability:
1. CC[C@@H]1C(=O)N(C)c2cnc(Nc3ccc(C(=O)NC4CCN(C)CC4)cc3OC)nc2N1C1CCCC1 [BI 2536]  18.4%
2. O=C(/C=C/c1cccnc1)NCCCCC1CCN(C(=O)c2ccccc2)CC1 [FK-866]  100%

Same assay, conditions: 250 nM; incubation time: 72 h

For CC(=O)Nc1cccc(-n2c(=O)n(C3CC3)c(=O)c3c(Nc4ccc(I)cc4F)n(C)c(=O)c(C)c32)c1, the normalised viability was 97.7%.

Same assay, conditions: 990 nM; incubation time: 72 h

In the case of CCN(CC)CCCC(C)Nc1c2ccc(Cl)cc2nc2ccc(OC)cc12 (stereo unspecified) [Mepacrine], the normalised viability is reported as 27.9%.

Same assay, conditions: 1000 nM; incubation time: 72 h

In the case of Nc1ncn([C@H]2C[C@H](O)[C@@H](CO)O2)c(=O)n1 [Decitabine], the normalised viability is reported as 90.2% and 88.1%.

In order of rising normalised viability:
1. O=C(Cc1ccc(-c2ccc(OCCN3CCOCC3)cc2)cn1)NCc1ccccc1 [KX2-391]  19.9%
2. C=CC(=O)Nc1cc2c(Nc3ccc(F)c(Cl)c3)ncnc2cc1OCCCN1CCOCC1 [Canertinib]  19.9%
3. COc1cc([C@@H]2c3cc4c(cc3[C@@H](O[C@@H]3O[C@@H]5CO[C@@H](c6cccs6)O[C@H]5[C@H](O)[C@H]3O)[C@H]3COC(=O)[C@H]23)OCO4)cc(OC)c1O [Teniposide]  20.9%
4. CC[C@@H]1C(=O)N(C)c2cnc(Nc3ccc(C(=O)NC4CCN(C)CC4)cc3OC)nc2N1C1CCCC1 [BI 2536]  23.1%
5. Nc1ccccc1NC(=O)c1ccc(CNC(=O)OCc2cccnc2)cc1 [Entinostat]  45.2%
6. Nc1nc2[nH]cc(CCc3ccc(C(=O)N[C@@H](CCC(=O)O)C(=O)O)cc3)c2c(=O)[nH]1 [Pemetrexed]  59.2%
7. CC[C@H](Nc1ncnc2[nH]cnc12)c1nc2cccc(F)c2c(=O)n1-c1ccccc1 [CAL-101]  94.7%
8. COc1cc2nccc(Oc3ccc(NC(=O)Nc4cc(C)on4)c(Cl)c3)c2cc1OC [Tivozanib]  99.1%
9. CCN(CC)CCCC(C)Nc1c2ccc(Cl)cc2nc2ccc(OC)cc12 (stereo unspecified) [Mepacrine]  101%
10. O=C(/C=C/c1cccnc1)NCCCCC1CCN(C(=O)c2ccccc2)CC1 [FK-866]  111%

Same assay, conditions: 10000 nM; incubation time: 72 h

Nc1ncn([C@H]2C[C@H](O)[C@@H](CO)O2)c(=O)n1 [Decitabine] was tested, and the normalised viability was 69.1% and 74.5%.

In order of falling normalised viability:
1. COc1cc2nccc(Oc3ccc(NC(=O)Nc4cc(C)on4)c(Cl)c3)c2cc1OC [Tivozanib]  68.9%
2. Nc1nc2[nH]cc(CCc3ccc(C(=O)N[C@@H](CCC(=O)O)C(=O)O)cc3)c2c(=O)[nH]1 [Pemetrexed]  62.2%
3. CC[C@H](Nc1ncnc2[nH]cnc12)c1nc2cccc(F)c2c(=O)n1-c1ccccc1 [CAL-101]  59.1%
4. O=C(Cc1ccc(-c2ccc(OCCN3CCOCC3)cc2)cn1)NCc1ccccc1 [KX2-391]  19.1%
5. C=CC(=O)Nc1cc2c(Nc3ccc(F)c(Cl)c3)ncnc2cc1OCCCN1CCOCC1 [Canertinib]  12.9%
6. COc1cc([C@@H]2c3cc4c(cc3[C@@H](O[C@@H]3O[C@@H]5CO[C@@H](c6cccs6)O[C@H]5[C@H](O)[C@H]3O)[C@H]3COC(=O)[C@H]23)OCO4)cc(OC)c1O [Teniposide]  7.84%
7. Nc1ccccc1NC(=O)c1ccc(CNC(=O)OCc2cccnc2)cc1 [Entinostat]  2.8%
8. CCN(CC)CCCC(C)Nc1c2ccc(Cl)cc2nc2ccc(OC)cc12 (stereo unspecified) [Mepacrine]  2.49%

Test system: CAL-148
Experiment: as above
Conditions: 7.5 nM; incubation time: 72 h
Procedure, shortened: as §1

CC(=O)Nc1cccc(-n2c(=O)n(C3CC3)c(=O)c3c(Nc4ccc(I)cc4F)n(C)c(=O)c(C)c32)c1 was tested, and the normalised viability was 90.7%.
